In article PMC9386376, “Discovery of spirooxindole-derived small-molecule compounds as novel HDAC/MDM2 dual inhibitors and investigation of their anticancer activity” (Frontiers in Oncology, 2022):

Legend:
HDAC1 = HDAC1 (Homo sapiens, UniProt Q13547); test: HTRF enzyme inhibition assay, HDAC1; details: read-out: % enzyme inhibition HDAC
GST-tagged MDM2 = biological target: T1, GST-tagged MDM2 (Homo sapiens, UniProt Q00987); test: HTRF enzyme inhibition assay, MDM2; format: biochemical; details: compound at 1 μM
T1 construct: purchased Cisbio Co. Ltd
T1 sequence (Q00987 whole entry): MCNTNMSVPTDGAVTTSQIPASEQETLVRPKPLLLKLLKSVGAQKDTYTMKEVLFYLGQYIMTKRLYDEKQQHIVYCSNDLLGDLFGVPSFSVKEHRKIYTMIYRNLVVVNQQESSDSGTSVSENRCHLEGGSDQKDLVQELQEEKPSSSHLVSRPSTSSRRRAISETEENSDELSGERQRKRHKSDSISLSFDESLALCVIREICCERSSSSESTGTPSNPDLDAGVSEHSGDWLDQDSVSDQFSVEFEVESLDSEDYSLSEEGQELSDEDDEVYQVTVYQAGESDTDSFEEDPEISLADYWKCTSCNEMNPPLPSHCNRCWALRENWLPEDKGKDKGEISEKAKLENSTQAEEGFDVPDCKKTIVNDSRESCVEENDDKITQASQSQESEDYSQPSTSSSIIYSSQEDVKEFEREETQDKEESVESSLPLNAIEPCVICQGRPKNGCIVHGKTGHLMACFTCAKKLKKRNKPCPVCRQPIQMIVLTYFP
Procedure: The enzymatic assay of test compounds is using the HTRF-based method provided by Cisbio Co. Ltd. In brief, the target compounds to be tested were prepared into samples with a concentration of 1 μM, which was added to GST-tagged MDM2 and HDAC1 proteins, respectively, then biotinylated substrate p53 peptide and HTRF detection reagents were added. The data obtained were processed by the ratio method, and the inhibition rates of MDM2 and HDAC1 were calculated. The detailed experimental procedures are according to the manufacturer’s protocols.

Sequence of HDAC1 (Q13547 whole entry): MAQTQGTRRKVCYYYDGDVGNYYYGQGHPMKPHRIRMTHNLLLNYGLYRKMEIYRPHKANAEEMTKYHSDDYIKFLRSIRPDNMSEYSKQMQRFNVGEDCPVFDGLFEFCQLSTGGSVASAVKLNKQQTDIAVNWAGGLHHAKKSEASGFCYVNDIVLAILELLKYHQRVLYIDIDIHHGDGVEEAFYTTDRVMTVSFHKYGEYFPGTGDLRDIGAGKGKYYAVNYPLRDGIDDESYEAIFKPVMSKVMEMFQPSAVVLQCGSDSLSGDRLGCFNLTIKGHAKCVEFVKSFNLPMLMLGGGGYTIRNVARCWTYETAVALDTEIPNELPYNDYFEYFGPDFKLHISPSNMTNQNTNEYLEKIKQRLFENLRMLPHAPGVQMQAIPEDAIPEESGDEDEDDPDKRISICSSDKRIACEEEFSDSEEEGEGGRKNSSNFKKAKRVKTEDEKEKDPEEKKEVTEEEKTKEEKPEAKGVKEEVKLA

With `O=C(CCCCC(=O)Nc1ccc(C(=O)Nc2ccc([C@@H]3[C@H]4CSCN4[C@]4(C(=O)Nc5cc(Cl)ccc54)[C@H]3C(=O)c3ccccc3)cc2)cc1)NO` [7v, N^1-(4-((4-((3R,6'S,7'R,7a'S)-6'-benzoyl-6-chloro-2-oxo-1',6',7',7a'-tetrahydro-3'H-spiro[indoline-3,5'-pyrrolo[1,2-c]thiazol]-7'-yl)phenyl)carbamoyl)phenyl)-N^6-hydroxyadipamide] the melting point was 175.5 to 176.6 °C, the inhibition at 1 µM (HDAC1) was 53% and the inhibition at 1 µM (GST-tagged MDM2) was 58%.

Work on `COc1cccc(C(=O)[C@H]2[C@H](c3ccc(NC(=O)CCCCCCC(=O)NO)cc3)[C@H]3CSCN3[C@]23C(=O)Nc2ccccc23)c1` [7l, N^1-hydroxy-N^8-(4-((3R,6'S,7'R,7a'S)-6'-(3-methoxybenzoyl)-2-oxo-1',6',7',7a'-tetrahydro-3'H-spiro[indoline-3,5'-pyrrolo[1,2-c]thiazol]-7'-yl)phenyl)octanediamide] yielded a melting point of 121.6 to 122.8 °C, an inhibition at 1 µM (HDAC1) of 62% and an inhibition at 1 µM (GST-tagged MDM2) of 44%.

For `COc1ccc2c(c1)[C@@]1(C(=O)N2)[C@@H](C(=O)c2ccccc2)[C@H](c2ccc(NC(=O)CCCCCCC(=O)NO)cc2)[C@H]2CSCN21` [7j, N^1-(4-((3R,6'S,7'R,7a'S)-6'-benzoyl-5-methoxy-2-oxo-1',6',7',7a'-tetrahydro-3'H-spiro[indoline-3,5'-pyrrolo[1,2-c]thiazol]-7'-yl)phenyl)-N^8-hydroxyoctanediamide], the melting point was 134.9 to 136.2 °C, the inhibition at 1 µM (HDAC1) was 70% and the inhibition at 1 µM (GST-tagged MDM2) was 50%.

With `O=C(CCCCCCCCC(=O)Nc1ccc([C@@H]2[C@H]3CSCN3[C@]3(C(=O)Nc4ccccc43)[C@H]2C(=O)c2ccccc2)cc1)NO` [7q, N^1-(4-((3R,6'S,7'R,7a'S)-6'-benzoyl-2-oxo-1',6',7',7a'-tetrahydro-3'H-spiro[indoline-3,5'-pyrrolo[1,2-c]thiazol]-7'-yl)phenyl)-N^10-hydroxydecanediamide] the melting point was 131.9 to 132.1 °C, the inhibition at 1 µM (HDAC1) was 71% and the inhibition at 1 µM (GST-tagged MDM2) was 42%.

Compound `CN(C)c1ccc(C(=O)[C@H]2[C@H](c3ccc(NC(=O)CCCCCCC(=O)NO)cc3)[C@H]3CSCN3[C@]23C(=O)Nc2ccccc23)cc1` [7m, N^1-(4-((3R,6'S,7'R,7a'S)-6'-(4-(dimethylamino)benzoyl)-2-oxo-1',6',7',7a'-tetrahydro-3'H-spiro[indoline-3,5'-pyrrolo[1,2-c]thiazol]-7'-yl)phenyl)-N^8-hydroxyoctanediamide] has a melting point of 148.7 to 150 °C, an inhibition at 1 µM (HDAC1) of 68% and an inhibition at 1 µM (GST-tagged MDM2) of 40%.

`O=C(CCCCCCC(=O)Nc1ccc([C@@H]2[C@H]3CCCN3[C@]3(C(=O)Nc4cc(Cl)ccc43)[C@H]2C(=O)c2ccccc2)cc1)NO` [7t, N^1-(4-((1'R,2'S,3R,7a'R)-2'-benzoyl-6-chloro-2-oxo-1',2',5',6',7',7a'-hexahydrospiro[indoline-3,3'-pyrrolizin]-1'-yl)phenyl)-N^8-hydroxyoctanediamide] showed a melting point of 143.4 to 144.5 °C, an inhibition at 1 µM (HDAC1) of 61% and an inhibition at 1 µM (GST-tagged MDM2) of 61%.

For `Nc1ccccc1NC(=O)CCCCCCC(=O)Nc1ccc([C@@H]2[C@H]3CSCN3[C@]3(C(=O)Nc4ccccc43)[C@H]2C(=O)c2ccccc2)cc1` [9b, N^1-(2-aminophenyl)-N^8-(4-((3R,6'S,7'R,7a'S)-6'-benzoyl-2-oxo-1',6',7',7a'-tetrahydro-3'H-spiro[indoline-3,5'-pyrrolo[1,2-c]thiazol]-7'-yl)phenyl)octanediamide], the melting point was 131.7 to 132.9 °C, the inhibition at 1 µM (HDAC1) was 45% and the inhibition at 1 µM (GST-tagged MDM2) was 45%.

`O=C(CCCCCCC(=O)Nc1ccc([C@@H]2[C@H]3CSCN3[C@]3(C(=O)Nc4cc(Cl)ccc43)[C@H]2C(=O)c2ccccc2)cc1)NO` [compound 7f, N^1-(4-((3R,6'S,7'R,7a'S)-6'-benzoyl-6-chloro-2-oxo-1',6',7',7a'-tetrahydro-3'H-spiro[indoline-3,5'-pyrrolo[1,2-c]thiazol]-7'-yl)phenyl)-N^8-hydroxyoctanediamide] gave a melting point of 150.2 to 151.2 °C, an inhibition at 1 µM (HDAC1) of 64% and an inhibition at 1 µM (GST-tagged MDM2) of 65%.

`O=C(CCCCC(=O)Nc1ccc([C@@H]2[C@H]3CSCN3[C@]3(C(=O)Nc4ccccc43)[C@H]2C(=O)c2ccccc2)cc1)NO` [7p, N^1-(4-((3R,6'S,7'R,7a'S)-6'-benzoyl-2-oxo-1',6',7',7a'-tetrahydro-3'H-spiro[indoline-3,5'-pyrrolo[1,2-c]thiazol]-7'-yl)phenyl)-N^6-hydroxyadipamide] showed a melting point of 140.3 to 141.7 °C, an inhibition at 1 µM (HDAC1) of 60% and an inhibition at 1 µM (GST-tagged MDM2) of 44%.

`O=C(CCCCCCC(=O)Nc1ccc([C@@H]2[C@H]3CSCN3[C@]3(C(=O)Nc4ccc(Br)cc43)[C@H]2C(=O)c2ccccc2)cc1)NO` [7e, N^1-(4-((3R,6'S,7'R,7a'S)-6'-benzoyl-5-bromo-2-oxo-1',6',7',7a'-tetrahydro-3'H-spiro[indoline-3,5'-pyrrolo[1,2-c]thiazol]-7'-yl)phenyl)-N^8-hydroxyoctanediamide] showed a melting point of 146.8 to 148 °C, an inhibition at 1 µM (HDAC1) of 72% and an inhibition at 1 µM (GST-tagged MDM2) of 48%.

`Nc1ccccc1NC(=O)CCCCCCC(=O)Nc1ccc([C@@H]2[C@H]3CSCN3[C@]3(C(=O)Nc4cc(Cl)ccc43)[C@H]2C(=O)c2ccccc2)cc1` [9d, N^1-(2-aminophenyl)-N^8-(4-((3R,6'S,7'R,7a'S)-6'-benzoyl-6-chloro-2-oxo-1',6',7',7a'-tetrahydro-3'H-spiro[indoline-3,5'-pyrrolo[1,2-c]thiazol]-7'-yl)phenyl)octanediamide] gave a melting point of 145.2 to 146.4 °C, an inhibition at 1 µM (HDAC1) of 55% and an inhibition at 1 µM (GST-tagged MDM2) of 56%.

In the case of `O=C(CCCCCCC(=O)Nc1ccc([C@@H]2[C@H]3CSCN3[C@]3(C(=O)Nc4cc(Br)ccc43)[C@H]2C(=O)c2ccccc2)cc1)NO` [7g, N^1-(4-((3R,6'S,7'R,7a'S)-6'-benzoyl-6-bromo-2-oxo-1',6',7',7a'-tetrahydro-3'H-spiro[indoline-3,5'-pyrrolo[1,2-c]thiazol]-7'-yl)phenyl)-N^8-hydroxyoctanediamide], the melting point is reported as 149.8 to 152.1 °C, the inhibition at 1 µM (HDAC1) is reported as 68% and the inhibition at 1 µM (GST-tagged MDM2) is reported as 59%.

Work on `O=C(CCCCCCC(=O)Nc1ccc([C@@H]2[C@H]3CSCN3[C@]3(C(=O)Nc4ccc(F)cc43)[C@H]2C(=O)c2ccccc2)cc1)NO` [7c, N^1-(4-((3R,6'S,7'R,7a'S)-6'-benzoyl-5-fluoro-2-oxo-1',6',7',7a'-tetrahydro-3'H-spiro[indoline-3,5'-pyrrolo[1,2-c]thiazol]-7'-yl)phenyl)-N^8-hydroxyoctanediamide] yielded a melting point of 144.3 to 145.7 °C, an inhibition at 1 µM (HDAC1) of 68% and an inhibition at 1 µM (GST-tagged MDM2) of 51%.

Compound `O=C(CCCCCCC(=O)Nc1ccc([C@@H]2[C@H]3CSCN3[C@]3(C(=O)Nc4ccccc43)[C@H]2C(=O)c2cccc(Br)c2)cc1)NO` [7n, N^1-(4-((3R,6'S,7'R,7a'S)-6'-(3-bromobenzoyl)-2-oxo-1',6',7',7a'-tetrahydro-3'H-spiro[indoline-3,5'-pyrrolo[1,2-c]thiazol]-7'-yl)phenyl)-N^8-hydroxyoctanediamide] has a melting point of 120.2 to 121.5 °C, an inhibition at 1 µM (HDAC1) of 69% and an inhibition at 1 µM (GST-tagged MDM2) of 43%.

In the case of `O=C(CCCCCCC(=O)Nc1ccc([C@@H]2[C@H]3CSCN3[C@]3(C(=O)Nc4ccc(Cl)cc43)[C@H]2C(=O)c2ccccc2)cc1)NO` [7d, N^1-(4-((3R,6'S,7'R,7a'S)-6'-benzoyl-5-chloro-2-oxo-1',6',7',7a'-tetrahydro-3'H-spiro[indoline-3,5'-pyrrolo[1,2-c]thiazol]-7'-yl)phenyl)-N^8-hydroxyoctanediamide], the melting point is reported as 154.6 to 156.2 °C, the inhibition at 1 µM (HDAC1) is reported as 67% and the inhibition at 1 µM (GST-tagged MDM2) is reported as 49%.

Compound `Cc1ccc2c(c1)[C@@]1(C(=O)N2)[C@@H](C(=O)c2ccccc2)[C@H](c2ccc(NC(=O)CCCCCCC(=O)NO)cc2)[C@H]2CSCN21` [7b, N^1-(4-((3R,6'S,7'R,7a'S)-6'-benzoyl-5-methyl-2-oxo-1',6',7',7a'-tetrahydro-3'H-spiro[indoline-3,5'-pyrrolo[1,2-c]thiazol]-7'-yl)phenyl)-N^8-hydroxyoctanediamide] has a melting point of 144.2 to 145.6 °C, an inhibition at 1 µM (HDAC1) of 71% and an inhibition at 1 µM (GST-tagged MDM2) of 45%.

`O=C(CCC(=O)Nc1ccc([C@@H]2[C@H]3CSCN3[C@]3(C(=O)Nc4ccccc43)[C@H]2C(=O)c2ccccc2)cc1)NO` [7o, N^1-(4-((3R,6'S,7'R,7a'S)-6'-benzoyl-2-oxo-1',6',7',7a'-tetrahydro-3'H-spiro[indoline-3,5'-pyrrolo[1,2-c]thiazol]-7'-yl)phenyl)-N^4-hydroxysuccinamide] gave a melting point of 145.1 to 146.3 °C, an inhibition at 1 µM (HDAC1) of 54% and an inhibition at 1 µM (GST-tagged MDM2) of 43%.

Work on `O=C(CCCCCCC(=O)Nc1ccc([C@@H]2[C@H]3CSCN3[C@]3(C(=O)Nc4c(Br)cccc43)[C@H]2C(=O)c2ccccc2)cc1)NO` [7i, N^1-(4-((3R,6'S,7'R,7a'S)-6'-benzoyl-7-bromo-2-oxo-1',6',7',7a'-tetrahydro-3'H-spiro[indoline-3,5'-pyrrolo[1,2-c]thiazol]-7'-yl)phenyl)-N^8-hydroxyoctanediamide] yielded a melting point of 137.5 to 138.9 °C, an inhibition at 1 µM (HDAC1) of 67% and an inhibition at 1 µM (GST-tagged MDM2) of 30%.

`Nc1ccccc1NC(=O)CCCCCCCCC(=O)Nc1ccc([C@@H]2[C@H]3CSCN3[C@]3(C(=O)Nc4cc(Cl)ccc43)[C@H]2C(=O)c2ccccc2)cc1` [9e, N^1-(2-aminophenyl)-N^10-(4-((3R,6'S,7'R,7a'S)-6'-benzoyl-6-chloro-2-oxo-1',6',7',7a'-tetrahydro-3'H-spiro[indoline-3,5'-pyrrolo[1,2-c]thiazol]-7'-yl)phenyl)decanediamide] gave a melting point of 132.4 to 133.9 °C, an inhibition at 1 µM (HDAC1) of 47% and an inhibition at 1 µM (GST-tagged MDM2) of 56%.
